Data as given in patent US20260008780A1, “SUBSTITUTED 3,4-DIHYDROISOQUINOLIN-1(2H)-ONE DERIVATIVES AND RELATED USES” (NodThera Limited, priority 2022, published 2026).
pIC50: −log10 of the molar value. Counter-ions that a name gives are not always drawn.

Test system: IL-1β release upon NLRP3 activation in peripheral blood mononuclear cells (PBMC)
Experiment: PBMC IC50 Determination Assay
Type: cell-based
Details: Homo sapiens; PBMC from buffy coats, LPS 3 h, compound 30 min, then ATP (5 mM) or nigericin (10 μM) 1 h; IL-1β in media by ELISA (Protocol A) or HTRF (Protocol B)
Experimental: The compounds of the present disclosure were tested for their inhibitory activity against IL-1β release upon NLRP3 activation in peripheral blood mononuclear cells (PBMC).
Protocol A. PBMC were isolated from buffy coats by density gradient centrifugation on Histopaque-1077 (Sigma, cat no. 10771). Isolated cells were seeded into the wells of a 96-well plate and incubated for 3 h with lipopolysaccharide (LPS). Following medium exchange, the compounds of the present disclosure were added (a single compound per well) and the cells were incubated for 30 min. Next, the cells were stimulated either with ATP (5 mM) or nigericin (10 μM) for 1 h and the cell culture media from the wells were collected for further analysis.
The release of IL-1β into the media was determined by a quantitative detection of IL-1β in the media using an IL-1p enzyme-linked immunosorbent assay (ELISA) Ready-SET-Go!, eBioscience cat. No. 88-7261-88. Briefly, in a first step, high affinity binding plates (Corning, Costar 9018 or NUNC Maxisorp Cat No. 44-2404) were coated overnight at 4° C. with specific capture antibody included in the kit (anti-human IL-1β ref 14-7018-68). Subsequently, plates were blocked with blocking buffer for 1 h at room temperature (rt) and after washing with a buffer (PBS with 0.05% Tween-20) incubated with protein standard and culture media. After 2 h of incubation at rt, plates were washed and incubated with biotinylated detection antibody included in the kit (anti-human IL-1β Biotin ref. 33-7110-68) for 1 h at rt. Plates were washed and incubated with HRP-streptavidin for 30 min at rt and washed again. The signal was developed after addition of 3,3′,5,5′-tetramethylbenzidine-peroxidase (TMB) until colour appeared and the reaction was stopped by 2 M H2SO4. A microplate spectrophotometer (BioTek) was used to detect signals with 450 nm. The detection range of IL-1β ELISA was […].
Protocol B. PBMC were isolated from buffy coats by density gradient centrifugation on Histopaque-1077 (Sigma, cat no. 10771). Isolated cells were seeded into the wells (280,000 cells/well) of a 96-well plate and incubated for 3 h with lipopolysaccharide (LPS, 1 μg/mL diluted 1000× from a 1 mg/mL stock solution). The compounds of the present disclosure were added (a single compound per well) and the cells were incubated for 30 min. Next, the cells were stimulated with ATP (5 mM final concentration diluted 20× from a 100 mM stock solution) for 1 h and the cell culture media from the wells were collected for further analysis.
The release of IL-1β into the media was determined by quantitative detection of IL-1β in the media using HTRF®, CisBio cat. No. 62HIL1BPEH. Briefly, cell culture supernatant were dispensed directly into the assay plate containing antibodies labelled with the HTRF® donor and acceptor. A microplate spectrophotometer (BMG) was used to detect signals at 655 nm and 620 nm. The detection range of IL-1β HTRF® was 39-6500 μg/mL.

Q: `C[C@@H]1CN(CC(=O)Nc2ncccn2)C(=O)c2cc3sc(Cl)cc3n21` (racemic) [Compound 9, N-Pyrimidin-2-yl-2-[rac-(12R)-4-chloro-12-methyl-9-oxo-5-thia-1,10-diazatricyclo[6.4.0.02,6]dodeca-2(6),3,7-trien-10-yl]acetamide] was tested. Which pIC50 did it give?
A: The pIC50 was 5.52 to 6.00.

Q: With `CC1Cn2cccc2C(=O)N1CC(=O)N[C@@H]1CCCN(C2CC2)C1` (stereo partly drawn) [Compound 1, N-[(3R)-1-Cyclopropyl-3-piperidyl]-2-(3-methyl-1-oxo-3,4-dihydropyrrolo[1,2-a]pyrazin-2-yl)acetamide hydrochloride] as the molecule, how does the pIC50 read?
A: Its pIC50 is 5.00 to 5.52.

Q: With `C[C@]1(O)C[C@@H](NC(=O)CN2CC3(CC3)n3c(cc4sc(Cl)cc43)C2=O)C1` [Compound 2, cis-2-(4-Chloro-9-oxo-spiro[5-thia-1,10-diazatricyclo[6.4.0.0^2.6]dodeca-2(6),3,7-triene-12,1′-cyclopropane]-10-yl)-N-(3-hydroxy-3-methylcyclobutyl) acetamide] as the molecule, how does the pIC50 read?
A: The pIC50 was 5.52 to 6.00.

Q: `O=C(CN1CC2(CC2)n2c(cc3sc(Cl)cc32)C1=O)Nc1ncccn1` [Compound 3, 2-(4-Chloro-9-oxo-spiro[5-thia-1,10-diazatricyclo[6.4.0.02,6]dodeca-2(6),3,7-triene-12,1′-cyclopropane]-10-yl)-N-pyrimidin-2-yl-acetamide] was tested. Which pIC50 did it give?
A: Its pIC50 is 6.00 to 7.00.

Q: `O=C(CN1CC2(CC2)n2c(cc3sc(Cl)cc32)C1=O)NC1CC2(COC2)C1` [Compound 4] was tested. Which pIC50 did it give?
A: Its pIC50 is 5.52 to 6.00.

Q: With `Cc1nc(NC(=O)CN2CC3(CC3)n3c(cc4sc(Cl)cc43)C2=O)ns1` [Compound 5, 2-(4-Chloro-9-oxo-spiro[5-thia-1,10-diazatricyclo[6.4.0.0^2,6]dodeca-2(6),3,7-triene-12,1′-cyclopropane]-10-yl)-N-(5-methyl-1,2,4-thiadiazol-3-yl)acetamide] as the molecule, how does the pIC50 read?
A: The pIC50 was 5.52 to 6.00.

Q: How did the pIC50 turn out when `O=C(CN1CC2(CC2)n2c(cc3sc(Cl)cc32)C1=O)Nc1ncc(F)cn1` [Compound 6, 2-(4-Chloro-9-oxo-spiro[5-thia-1,10-diazatricyclo[6.4.0.0^2.6]dodeca-2(6),3,7-triene-12,1′-cyclopropane]-10-yl)-N-(5-fluoropyrimidin-2-yl)acetamide] was run?
A: Its pIC50 is > 7.00.

Q: How did the pIC50 turn out when `CCn1cc2c(n1)C1(CC1)CN(CC(=O)Nc1ncc(F)cn1)C2=O` [Compound 7, 2-(2-Ethyl-4-oxo-spiro[6H-pyrazolo[4,3-c]pyridine-7,1′-cyclopropane]-5-yl)-N-(5-fluoropyrimidin-2-yl)acetamide] was run?
A: The pIC50 was 5.52 to 6.00.

Q: With `CC(C)c1cc2n(n1)C1(CC1)CN(CC(=O)Nc1ncccn1)C2=O` [Compound 8, 2-(2-Isopropyl-4-oxo-spiro[6H-pyrazolo[1,5-a]pyrazine-7,1′-cyclopropane]-5-yl)-N-pyrimidin-2-yl-acetamide] as the molecule, how does the pIC50 read?
A: The pIC50 was 5.00 to 5.52.

Q: `C[C@@H]1CN(CC(=O)N[C@H]2C[C@@](C)(O)C2)C(=O)c2cc3sc(Cl)cc3n21` [Compound 10, 2-[(12R)-4-Chloro-12-methyl-9-oxo-5-thia-1,10-diazatricyclo[6.4.0.02,6]dodeca-2(6),3,7-trien-10-yl]-N-(3-hydroxy-3-methyl-cyclobutyl)acetamide] was tested. Which pIC50 did it give?
A: The pIC50 was 5.00 to 5.52.

Q: `CC(C)c1cc2n(c1)C1(CC1)CN(CC(=O)Nc1ncccn1)C2=O` [Compound 11, 2-(7-Isopropyl-1-oxo-spiro[3H-pyrrolo[1,2-a]pyrazine-4,1′-cyclopropane]-2-yl)-N-pyrimidin-2-yl-acetamide] was tested. Which pIC50 did it give?
A: The pIC50 was 5.00 to 5.52.

Q: How did the pIC50 turn out when `CC(C)c1nc2c(s1)C(=O)N(CC(=O)Nc1ncccn1)CC21CC1` [Compound 12, 2-(2-Isopropyl-4-oxo-spiro[6H-thiazolo[5,4-c]pyridine-7,1′-cyclopropane]-5-yl)-N-pyrimidin-2-yl-acetamide] was run?
A: The pIC50 was 5.00 to 5.52.

Q: With `CCc1nc2c(s1)C(=O)N(CC(=O)Nc1ncccn1)CC21CC1` [Compound 13, 2-(2-Ethyl-4-oxo-spiro[6H-thiazolo[5,4-c]pyridine-7,1′-cyclopropane]-5-yl)-N-pyrimidin-2-yl-acetamide] as the molecule, how does the pIC50 read?
A: Its pIC50 is 5.00 to 5.52.

Q: With `CCc1cc2c(s1)C(=O)N(CC(=O)Nc1ncccn1)CC21CC1` [Compound 14, 2-(2-Ethyl-7-oxo-spiro[5H-thieno[2,3-c]pyridine-4,1′-cyclopropane]-6-yl)-N-pyrimidin-2-yl-acetamide] as the molecule, how does the pIC50 read?
A: The pIC50 was 6.00 to 7.00.

Q: `O=C(CN1CC2(CC2)c2nc(C3CC3)sc2C1=O)Nc1ncccn1` [Compound 15, 2-(2-Cyclopropyl-4-oxo-spiro[6H-thiazolo[5,4-c]pyridine-7,1′-cyclopropane]-5-yl)-N-pyrimidin-2-yl-acetamide] was tested. Which pIC50 did it give?
A: The pIC50 was 6.00 to 7.00.

Q: `CCOC(=O)c1cnc(NC(=O)CN2CC3(CC3)c3nc(C4CC4)sc3C2=O)nc1` [Compound 16, Ethyl 2-[[2-(2-cyclopropyl-4-oxo-spiro[6H-thiazolo[5,4-c]pyridine-7,1′-cyclopropane]-5-yl)acetyl]amino]pyrimidine-5-carboxylate] was tested. Which pIC50 did it give?
A: The pIC50 was 5.52 to 6.00.

Q: With `CC(C)n1cc2c(n1)C1(CC1)CN(CC(=O)Nc1ncccn1)C2=O` [Compound 17, 2-(2-Isopropyl-4-oxo-spiro[6H-pyrazolo[4,3-c]pyridine-7,1′-cyclopropane]-5-yl)-N-pyrimidin-2-yl-acetamide] as the molecule, how does the pIC50 read?
A: Its pIC50 is 5.00 to 5.52.

Q: With `CCc1cc2c(o1)C1(CC1)CN(CC(=O)Nc1ncccn1)C2=O` [Compound 18, 2-(2′-Ethyl-4′-oxo-4′H-spiro[cyclopropane-1,7′-furo[3,2-c]pyridin]-5′(6′H)-yl)-N-(pyrimidin-2-yl)acetamide] as the molecule, how does the pIC50 read?
A: Its pIC50 is 6.00 to 7.00.

Q: How did the pIC50 turn out when `CC(C)c1cc2c([nH]1)C(=O)N(CC(=O)Nc1ncccn1)CC21CC1` [Compound 19, 2-(2′-Isopropyl-7′-oxo-1′,7′-dihydrospiro[cyclopropane-1,4′-pyrrolo[2,3-c]pyridin]-6′(5′H)-yl)-N-(pyrimidin-2-yl)acetamide] was run?
A: Its pIC50 is 5.52 to 6.00.

Q: With `CC(C)c1cc2c(n1C)C(=O)N(CC(=O)Nc1ncccn1)CC21CC1` [Compound 20, 2-(2′-Isopropyl-1′-methyl-7′-oxo-1′,7′-dihydrospiro[cyclopropane-1,4′-pyrrolo[2,3-c]pyridin]-6′(5′H)-yl)-N-(pyrimidin-2-yl)acetamide] as the molecule, how does the pIC50 read?
A: Its pIC50 is 5.52 to 6.00.

Q: `CC(C)c1nc2c(n1C)C(=O)N(CC(=O)Nc1ncccn1)CC21CC1` [Compound 21] was tested. Which pIC50 did it give?
A: The pIC50 was 4.30 to 5.00.

Q: With `CC(C)c1cc2n(n1)[C@H](C)CN(CC(=O)Nc1ncccn1)C2=O` [Compound 22, 2-[(7R)-7-Methyl-4-oxo-2-(propan-2-yl)-4H,5H,6H,7H-pyrazolo[1,5-a]pyrazin-5-yl]-N-(pyrimidin-2-yl)acetamide] as the molecule, how does the pIC50 read?
A: The pIC50 was 4.30 to 5.00.

Q: With `CCNc1cc2c(s1)C(=O)N(CC(=O)Nc1ncccn1)CC21CC1` [Compound 23, 2-(2′-(Ethylamino)-7′-oxo-5′H-spiro[cyclopropane-1,4′-thieno[2,3-c]pyridin]-6′(7′H)-yl)-N-(pyrimidin-2-yl)acetamide] as the molecule, how does the pIC50 read?
A: The pIC50 was 5.52 to 6.00.

Q: With `Cc1cc2c(s1)C(=O)N(CC(=O)Nc1ncccn1)CC21CC1` [Compound 24, 2-(2′-Methyl-7′-oxo-5′H-spiro[cyclopropane-1,4′-thieno[2,3-c]pyridin]-6′(7′H)-yl)-N-(pyrimidin-2-yl)acetamide] as the molecule, how does the pIC50 read?
A: Its pIC50 is 5.52 to 6.00.

Q: How did the pIC50 turn out when `CC(C)c1cc2c(s1)C(=O)N(CC(=O)Nc1ncccn1)CC21CC1` [Compound 25, 2-(2′-Isopropyl-7′-oxo-5′H-spiro[cyclopropane-1,4′-thieno[2,3-c]pyridin]-6′(7′H)-yl)-N-(pyrimidin-2-yl)acetamide] was run?
A: The pIC50 was 6.00 to 7.00.

Q: With `O=C(CN1CC2(CC2)c2cc(C3CC3)sc2C1=O)Nc1ncccn1` [Compound 26, 2-(2′-Cyclopropyl-7′-oxo-5′H-spiro[cyclopropane-1,4′-thieno[2,3-c]pyridin]-6′(7′H)-yl)-N-(pyrimidin-2-yl)acetamide] as the molecule, how does the pIC50 read?
A: Its pIC50 is 6.00 to 7.00.

Q: With `CC1(c2cc3c(s2)C(=O)N(CC(=O)Nc2ncccn2)CC32CC2)CC1` [Compound 27, 2-(2′-(1-Methylcyclopropyl)-7′-oxo-5′H-spiro[cyclopropane-1,4′-thieno[2,3-c]pyridin]-6′(7′H)-yl)-N-(pyrimidin-2-yl)acetamide] as the molecule, how does the pIC50 read?
A: Its pIC50 is 6.00 to 7.00.

Q: With `Cc1nc2c(cc3n2C(C)CN(CC(=O)Nc2ncccn2)C3=O)s1` (centres unmarked) [Compound 41] as the molecule, how does the pIC50 read?
A: The pIC50 was 4.30 to 5.00.

Q: How did the pIC50 turn out when `CCc1cc2c(s1)C(=O)N(CC(=O)Nc1ccc3c(c1)[nH]c(=O)n3C)CC21CC1` [Compound 44, 2-(2′-Ethyl-7′-oxo-5′H-spiro[cyclopropane-1,4′-thieno[2,3-c]pyridin]-6′(7′H)-yl)-N-(1-methyl-2-oxo-2,3-dihydro-1H-benzo[d]imidazol-5-yl)acetamide] was run?
A: Its pIC50 is 5.52 to 6.00.
